Results on 38 compounds are retold here after ChEMBL document CHEMBL4616657, “Aromatic Esters of the Crinane Amaryllidaceae Alkaloid Ambelline as Selective Inhibitors of Butyrylcholinesterase” (J Nat Prod, 2020).

Data set [1] has as its target T1, Acetylcholinesterase (Homo sapiens, UniProt P22303). As to the kind of experiment: Inhibition of human AChE using acetylthiocholine iodide as substrate measured for 1 min by spectrophotometric based Ellman's method. (In general: In Ellman's method for cholinesterases, released thiocholine reacts with DTNB.)
In data set [2] the target is T2, Cholinesterase (Homo sapiens, UniProt P06276). Nature of the data set: Inhibition of human BuChE using butyrylthiocholine iodide as substrate measured for 1 min by spectrophotometric based Ellman's method.
T2 sequence (P06276 whole entry): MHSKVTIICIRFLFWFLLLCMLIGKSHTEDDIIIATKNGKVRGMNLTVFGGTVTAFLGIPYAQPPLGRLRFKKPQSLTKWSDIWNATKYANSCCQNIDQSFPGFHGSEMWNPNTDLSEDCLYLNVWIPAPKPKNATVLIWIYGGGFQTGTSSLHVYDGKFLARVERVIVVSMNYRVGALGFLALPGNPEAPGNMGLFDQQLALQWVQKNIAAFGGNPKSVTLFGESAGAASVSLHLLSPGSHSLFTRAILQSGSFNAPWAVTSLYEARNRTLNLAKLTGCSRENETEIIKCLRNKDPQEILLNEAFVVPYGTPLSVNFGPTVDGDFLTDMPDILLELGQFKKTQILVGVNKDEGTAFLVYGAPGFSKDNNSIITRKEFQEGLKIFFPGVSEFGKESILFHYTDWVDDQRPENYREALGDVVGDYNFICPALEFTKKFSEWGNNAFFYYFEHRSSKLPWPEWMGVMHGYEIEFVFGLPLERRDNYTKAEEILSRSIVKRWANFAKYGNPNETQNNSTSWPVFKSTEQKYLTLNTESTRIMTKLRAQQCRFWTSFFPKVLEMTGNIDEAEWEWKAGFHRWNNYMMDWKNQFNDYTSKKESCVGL
The target of data set [3] is T1, Acetylcholinesterase. Nature of the data set: Inhibition of human AChE using acetylthiocholine iodide as substrate at 100 uM measured for 1 min by spectrophotometric based Ellman's method relative to control.
Data set [4] addresses T2, Cholinesterase. Nature of the data set: Inhibition of human BuChE using butyrylthiocholine iodide as substrate at 100 uM measured for 1 min by spectrophotometric based Ellman's method relative to control.
The species entered for a further data set is Homo sapiens. Nature of the data set: Selectivity index, ratio of IC50 for inhibition of human AChE using acetylthiocholine iodide as substrate to inhibition of human BuChE using butyrylthiocholine iodide as substrate.
For data set [5], the target named is Cholinesterase (Equus caballus, UniProt P81908). Nature of the data set: Inhibition of horse serum BuChE using butyrylthiocholine chloride as substrate by spectrophotometric based Ellman's method.
Chain of Cholinesterase (Equus caballus, UniProt P81908) (P81908 whole entry): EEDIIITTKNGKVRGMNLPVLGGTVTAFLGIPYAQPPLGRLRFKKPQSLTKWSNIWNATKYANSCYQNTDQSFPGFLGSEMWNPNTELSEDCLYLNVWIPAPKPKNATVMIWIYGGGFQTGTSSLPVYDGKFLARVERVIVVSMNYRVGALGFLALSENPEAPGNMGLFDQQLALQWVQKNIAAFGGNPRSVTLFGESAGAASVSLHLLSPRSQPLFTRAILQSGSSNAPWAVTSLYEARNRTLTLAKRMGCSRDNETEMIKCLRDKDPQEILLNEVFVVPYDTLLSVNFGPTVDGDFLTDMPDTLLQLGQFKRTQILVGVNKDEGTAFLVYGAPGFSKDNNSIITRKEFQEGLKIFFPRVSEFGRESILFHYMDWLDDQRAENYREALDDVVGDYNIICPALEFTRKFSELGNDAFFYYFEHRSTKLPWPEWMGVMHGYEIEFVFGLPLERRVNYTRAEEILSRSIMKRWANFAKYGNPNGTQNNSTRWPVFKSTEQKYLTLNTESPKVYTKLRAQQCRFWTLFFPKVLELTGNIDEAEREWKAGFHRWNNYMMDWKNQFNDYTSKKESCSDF
Data set [6] is described as follows: Effective permeability of the compound at pH 7.4 at 100 uM measured after 3 to 6 hrs by PAMPA assay. Format: ADME. The settings on record: read-out: Peff. (PAMPA measures passive passage across an artificial lipid membrane.)

Molecules are shown by their SMILES. pIC50: −log10 of the molar value.

T1 sequence (P22303 whole entry): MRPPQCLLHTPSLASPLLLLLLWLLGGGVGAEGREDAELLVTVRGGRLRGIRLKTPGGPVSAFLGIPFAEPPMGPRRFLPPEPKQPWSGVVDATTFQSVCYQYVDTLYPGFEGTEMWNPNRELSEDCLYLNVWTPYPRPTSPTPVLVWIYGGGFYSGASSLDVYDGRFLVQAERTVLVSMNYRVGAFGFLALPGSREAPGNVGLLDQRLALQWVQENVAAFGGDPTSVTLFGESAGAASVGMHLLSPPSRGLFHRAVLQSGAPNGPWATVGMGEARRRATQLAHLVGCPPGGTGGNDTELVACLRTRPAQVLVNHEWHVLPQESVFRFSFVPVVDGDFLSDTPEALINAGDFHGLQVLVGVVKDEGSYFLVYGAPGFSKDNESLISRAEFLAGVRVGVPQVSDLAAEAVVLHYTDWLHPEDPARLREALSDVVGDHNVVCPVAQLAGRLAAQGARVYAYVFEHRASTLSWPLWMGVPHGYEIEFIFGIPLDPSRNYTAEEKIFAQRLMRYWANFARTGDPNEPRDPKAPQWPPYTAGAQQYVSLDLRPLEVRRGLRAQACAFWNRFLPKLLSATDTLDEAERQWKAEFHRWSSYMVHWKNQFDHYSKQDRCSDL

As usually defined, the pIC50 is −log10 of the IC50, conventionally taken in molar units. High values mean a small IC50, low ones a large IC50. As to `COc1c2c(cc3c1OCO3)[C@]13C=C[C@H](OC)C[C@@H]1N(C2)C[C@H]3OC(=O)c1cccc([N+](=O)[O-])c1`, the pIC50 was 4.32 against Acetylcholinesterase [1] and 4.09 against Cholinesterase [2].

Broadly, the inhibition is the relative decrease from the control value, in per cent. The low end stands for little suppression, the high end for strong suppression. With `COc1cccc(C(=O)O[C@@H]2C[N@@]3Cc4c(cc5c(c4OC)OCO5)[C@@]24C=C[C@H](OC)C[C@H]34)c1`, the inhibition on Acetylcholinesterase [3] amounted to 25%; against Cholinesterase [4], 91%. Besides, in the data set listed under Homo sapiens, the Ratio IC50 is over 16.

Regarding `COc1c2c(cc3c1OCO3)[C@]13C=C[C@H](OC)C[C@@H]1[N@](C2)C[C@H]3OC(=O)c1ccoc1`, the inhibition on Acetylcholinesterase [3] turned out to be 12%; on Cholinesterase [4], 61%. Moreover, the Ratio IC50 in the data set filed under Homo sapiens stood at 1.9.

With `COc1c2c(cc3c1OCO3)[C@]13C=C[C@H](OC)C[C@@H]1[N@](C2)C[C@H]3OC(=O)c1cccc([N+](=O)[O-])c1`, the inhibition at Acetylcholinesterase [3] came to 58%; on Cholinesterase [4], 53%. For the same compound, the Ratio IC50 in the data set filed under Homo sapiens was 0.6.

Turning to `COc1c2c(cc3c1OCO3)[C@]13C=C[C@H](OC)C[C@@H]1[N@](C2)C[C@H]3OC(=O)c1ccco1`, the inhibition came to 12% at Acetylcholinesterase [3] and 49% on Cholinesterase [4].

Take `COc1ccc(C(=O)O[C@@H]2C[N@@]3Cc4c(cc5c(c4OC)OCO5)[C@@]24C=C[C@H](OC)C[C@H]34)cc1`: the inhibition on Acetylcholinesterase [3] came to 26%; at Cholinesterase [4], 32%. The pIC50 at Acetylcholinesterase [1] and against Cholinesterase [2] was under 4.00 throughout.

With `COc1c2c(cc3c1OCO3)[C@]13C=C[C@H](OC)C[C@@H]1N(C2)C[C@H]3OC(C)=O`, the pIC50 at Acetylcholinesterase [1] and against Cholinesterase [2] was under 4.00 each time.

With `COc1c2c(cc3c1OCO3)[C@]13C=C[C@H](OC)C[C@@H]1[N@](C2)C[C@H]3O`, the inhibition is 4% against Acetylcholinesterase [3] and 8% against Cholinesterase [4]. Also, the pIC50 against Acetylcholinesterase [1] and against Cholinesterase [2] was under 4.00 each time.

As for `COc1c2c(cc3c1OCO3)[C@]13C=C[C@H](OC)C[C@@H]1[N@](C2)C[C@H]3OC(=O)C(C)C`, the values for the inhibition at Acetylcholinesterase [3] and on Cholinesterase [4] were 3% and 12%, respectively.

For `COc1c2c(cc3c1OCO3)[C@]13C=C[C@H](OC)C[C@@H]1[N@](C2)C[C@H]3OC(=O)c1ccc([N+](=O)[O-])cc1`, the inhibition against Acetylcholinesterase [3] worked out at 31%; at Cholinesterase [4], 37%. For the same compound, the pIC50 at Acetylcholinesterase [1] and on Cholinesterase [2] was under 4.00 in each case.

`C[C@@H]([C@H]1[C@H](O)C[C@@]2(C)[C@@H]3CC[C@H]4C(C)(C)C(=O)C=C[C@@]45C[C@@]35CC[C@]12C)N(C)C` had a pIC50 against Cholinesterase [5] of 5.96.

For the compound `CCOc1cc(OCC)cc(C(=O)O[C@@H]2C[N@@]3Cc4c(cc5c(c4OC)OCO5)[C@@]24C=C[C@H](OC)C[C@H]34)c1`, the inhibition turned out to be 30% at Acetylcholinesterase [3] and 42% at Cholinesterase [4]. In addition, the pIC50 on Acetylcholinesterase [1] and at Cholinesterase [2] was under 4.00 each time.

Take `COc1cccc(C(=O)O[C@@H]2CN3Cc4c(cc5c(c4OC)OCO5)[C@@]24C=C[C@H](OC)C[C@H]34)c1`: the results for the pIC50 on Acetylcholinesterase [1] and at Cholinesterase [2] were under 4.00 and 5.22, respectively.

Take `CCC(=O)O[C@@H]1C[N@@]2Cc3c(cc4c(c3OC)OCO4)[C@@]13C=C[C@H](OC)C[C@H]23`: the values for the inhibition against Acetylcholinesterase [3] and at Cholinesterase [4] were 15% and 16%, respectively. Besides, the pIC50 on Acetylcholinesterase [1] and on Cholinesterase [2] was under 4.00 in each case.

In the case of `COc1c2c(cc3c1OCO3)[C@]13C=C[C@H](OC)C[C@@H]1N(C2)C[C@H]3OC(=O)C(C)C`, the pIC50 against Acetylcholinesterase [1] and on Cholinesterase [2] was under 4.00 each time.

For `COc1c2c(cc3c1OCO3)[C@]13C=C[C@H](OC)C[C@@H]1[N@](C2)C[C@H]3OC(=O)c1ccccc1[N+](=O)[O-]`, the inhibition on Acetylcholinesterase [3] stood at 75%; against Cholinesterase [4], 97%. Also, in the data set filed under Homo sapiens, the Ratio IC50 was 23.

On to `COc1c2c(cc3c1OCO3)[C@]13C=C[C@H](OC)C[C@@H]1N(C2)C[C@H]3OC(=O)c1ccccc1`, for which the pIC50 against Acetylcholinesterase [1] is under 4.00; against Cholinesterase [2] it was 5.42. Further, in data set [6], the Papp at 100 µM worked out at 12 ×10⁻⁶ cm/s.

Take `CO[C@@H]1C=C[C@@]23c4cc5c(cc4CN(C[C@@H]2O)[C@H]3C1)OCO5` [(+)-HAEMANTHAMINE]: the figures for the inhibition at Acetylcholinesterase [3] and on Cholinesterase [4] were 6% and 13%, respectively. The pIC50 against Acetylcholinesterase [1] and against Cholinesterase [2] was under 4.00 each time.

Take `CCCCC(=O)O[C@@H]1C[N@@]2Cc3c(cc4c(c3OC)OCO4)[C@@]13C=C[C@H](OC)C[C@H]23`: the inhibition against Acetylcholinesterase [3] amounted to 7%; against Cholinesterase [4], 39%. Also, the pIC50 against Acetylcholinesterase [1] and on Cholinesterase [2] was under 4.00 each time.

Turning to `COc1c2c(cc3c1OCO3)[C@]13C=C[C@H](OC)C[C@@H]1N(C2)C[C@H]3OC(=O)c1ccco1`, the pIC50 against Acetylcholinesterase [1] and against Cholinesterase [2] was under 4.00 throughout.

In the case of `COc1c2c(cc3c1OCO3)[C@]13C=C[C@H](OC)C[C@@H]1N(C2)C[C@H]3OC(=O)c1ccc2ccccc2c1`, the pIC50 was under 4.00 against Acetylcholinesterase [1] and 4.85 at Cholinesterase [2].

With `COc1c2c(cc3c1OCO3)[C@]13C=C[C@H](OC)C[C@@H]1[N@](C2)C[C@H]3OC(C)=O`, the figures for the inhibition on Acetylcholinesterase [3] and at Cholinesterase [4] were 4% and 28%, respectively.

In the case of `COc1c2c(cc3c1OCO3)[C@]13C=C[C@H](OC)C[C@@H]1[N@](C2)C[C@H]3OC(=O)c1cccc2ccccc12`, the inhibition at Acetylcholinesterase [3] turned out to be 21%; against Cholinesterase [4], 96%. Further, in the data set filed under Homo sapiens, the Ratio IC50 was over 1000.

With `COc1c2c(cc3c1OCO3)[C@]13C=C[C@H](OC)C[C@@H]1[N@](C2)C[C@H]3OC(=O)c1cccc(C)c1`, the inhibition on Acetylcholinesterase [3] was 41%; on Cholinesterase [4], 98%. Also, the Ratio IC50 in the data set filed under Homo sapiens was over 116.

Turning to `COc1c2c(cc3c1OCO3)[C@]13C=C[C@H](OC)C[C@@H]1[N@](C2)C[C@H]3OC(=O)c1ccccc1C`, the results for the inhibition against Acetylcholinesterase [3] and against Cholinesterase [4] were 51% and 99%, respectively. Also, the pIC50 on Acetylcholinesterase [1] is 4.26; on Cholinesterase [2] it was 6.55. In addition, the Ratio IC50 in the data set listed under Homo sapiens came out at 195. For the same compound, in data set [6], the Papp at 100 µM amounted to 19 ×10⁻⁶ cm/s.

With `COc1ccc(C(=O)O[C@@H]2C[N@@]3Cc4c(cc5c(c4OC)OCO5)[C@@]24C=C[C@H](OC)C[C@H]34)cc1OC`, the results for the inhibition on Acetylcholinesterase [3] and at Cholinesterase [4] were 15% and 33%, respectively.

Take `COc1ccccc1C(=O)O[C@@H]1C[N@@]2Cc3c(cc4c(c3OC)OCO4)[C@@]13C=C[C@H](OC)C[C@H]23`: the inhibition was 31% against Acetylcholinesterase [3] and 99% at Cholinesterase [4]. The Ratio IC50 in the data set listed under Homo sapiens was over 235.

With `COc1c2c(cc3c1OCO3)[C@]13C=C[C@H](OC)C[C@@H]1[N@](C2)C[C@H]3OC(=O)c1ccc2ccccc2c1`, the inhibition at Acetylcholinesterase [3] was determined as 29%; on Cholinesterase [4], 77%. Moreover, the Ratio IC50 in the data set listed under Homo sapiens was found to be 5.2.

Take `COc1c2c(cc3c1OCO3)[C@]13C=C[C@H](OC)C[C@@H]1N(C2)C[C@H]3OC(=O)c1ccc(C)cc1`: the pIC50 is under 4.00 on Acetylcholinesterase [1] and 4.55 against Cholinesterase [2].

As for `C[C@@H]([C@H]1CC[C@@]2(C)[C@@H]3CC[C@@H]4C(=CC3=CC[C@]12C)C=C[C@H](NC(=O)c1ccccc1)C4(C)C)N(C)C`, the negative-log IC50 (pIC50) at Cholinesterase [5] was 5.77.

For the compound `COc1c2c(cc3c1OCO3)[C@]13C=C[C@H](OC)C[C@@H]1N(C2)C[C@H]3OC(=O)c1ccoc1`, the pIC50 was under 4.00 on Acetylcholinesterase [1] and 4.49 at Cholinesterase [2].

`COc1c2c(cc3c1OCO3)[C@]13C=C[C@H](OC)C[C@@H]1N(C2)C[C@H]3OC(=O)c1cccc2ccccc12`: the results for the pIC50 at Acetylcholinesterase [1] and against Cholinesterase [2] were under 4.00 and 7.00, respectively. The Papp at 100 µM in data set [6] is 9 ×10⁻⁶ cm/s.

As to `COc1c2c(cc3c1OCO3)[C@]13C=C[C@H](OC)C[C@@H]1N(C2)C[C@H]3OC(=O)c1cccc(C)c1`, the pIC50 against Acetylcholinesterase [1] was under 4.00; on Cholinesterase [2], 6.07. The Papp at 100 µM in data set [6] amounted to 8 ×10⁻⁶ cm/s.

For `COc1c2c(cc3c1OCO3)[C@]13C=C[C@H](OC)C[C@@H]1[N@](C2)C[C@H]3OC(=O)c1ccc(C)cc1`, the inhibition stood at 28% on Acetylcholinesterase [3] and 68% against Cholinesterase [4]. Further, the Ratio IC50 in the data set listed under Homo sapiens is over 4.

Regarding `COc1ccccc1C(=O)O[C@@H]1CN2Cc3c(cc4c(c3OC)OCO4)[C@@]13C=C[C@H](OC)C[C@H]23`, the values for the pIC50 against Acetylcholinesterase [1] and against Cholinesterase [2] were under 4.00 and 6.37, respectively. The Papp at 100 µM in data set [6] turned out to be 12 ×10⁻⁶ cm/s.

Consider `COc1ccc(C(=O)O[C@@H]2CN3Cc4c(cc5c(c4OC)OCO5)[C@@]24C=C[C@H](OC)C[C@H]34)cc1OC`, for which the pIC50 on Acetylcholinesterase [1] and against Cholinesterase [2] was under 4.00 throughout.

As to `COc1c2c(cc3c1OCO3)[C@]13C=C[C@H](OC)C[C@@H]1N(C2)C[C@H]3OC(=O)c1ccccc1[N+](=O)[O-]`, the pIC50 on Acetylcholinesterase [1] is 4.27; against Cholinesterase [2], 5.64. Also, in data set [6], the Papp at 100 µM amounted to 12 ×10⁻⁶ cm/s.

For the compound `COc1c2c(cc3c1OCO3)[C@]13C=C[C@H](OC)C[C@@H]1[N@](C2)C[C@H]3OC(=O)c1ccccc1`, the inhibition against Acetylcholinesterase [3] was determined as 25%; against Cholinesterase [4], 97%. Further, in the data set listed under Homo sapiens, the Ratio IC50 was over 26.
